Measurements as given in patent US20230286970A1, “NOVEL OXADIAZOLE-BASED SELECTIVE HDAC6 INHIBITORS” (ITALFARMACO S.P.A., priority 2020, published 2023).
pIC50: −log10 of the molar value.

Experiments:
recombinant human HDAC6 = recombinant human HDAC6 (Homo sapiens (Human), UniProt Q9UBN7); experiment: Enzymatic screening, HDAC6 inhibition (fluorogenic FdL_G substrate); type: biochemical
Procedure, shortened: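 Enzyme was preincubated with compound (8 doses, triplicate, 1% DMSO) in 25 mM Tris-HCl pH 8, 130 mM NaCl, 0.05% Tween-20, 10% glycerol, with BSA. A FLUOR DE LYS-Green substrate was then added, and fluorescence was read after developer plus 2 μM TSA.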

[1] = Stability to Phase I metabolism in human S9 liver fraction; settings: after 90 minutes, 37° C.
[2] = Stability to Phase I metabolism in rat S9 liver fraction; settings: after 90 minutes, 37° C.
recombinant human HDAC1 = recombinant human HDAC1 (Homo sapiens (Human), UniProt Q13547); experiment: Enzymatic screening, HDAC1 inhibition (fluorogenic FdL_G substrate); type: biochemical
Procedure, shortened: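 Recombinant human HDAC1 inhibition was measured fluorometrically using the FLUOR DE LYS-Green (FdL_G) substrate. Compounds at 8 doses (1% DMSO final) in Tris-HCl pH 8 buffer with NaCl, Tween-20 and glycerol were preincubated in triplicate with enzyme and 1 mg/mL BSA, then given substrate. Developer I plus 2 μM TSA was added, and fluorescence read after 25 minutes in the dark.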

Stability in rat plasma = settings: after 4 hours, 37° C.
[3] = Stability in human plasma; settings: after 4 hours, 37° C.
Procedure: In order to evaluate the stability to circulating enzymes, test compounds were incubated in human and rat plasma at 37° C. in a thermostated oscillating bath. Each test compound was incubated at μM concentration (50 μM when the samples were analysed by UV/HPLC, 1 or 2 μM when the samples were analysed by LC-MS/MS) for 0, 15, 30 minutes and 1, 2 and 4 hours. The reaction was stopped placing samples on ice bath and adding acidified acetonitrile. After centrifugation (10 minutes at 14000 rpm) an aliquot of the supernatant was diluted with water, filtered with 0.45 μm regenerated cellulose syringe filters and injected in HPLC-UV or in LC-MS/MS. The percentage of the remaining amount at the various incubation times with respect to the initial amount were calculated. The half-life in plasma was also calculated.

recombinant human HDAC6, sequence (Q9UBN7 whole entry): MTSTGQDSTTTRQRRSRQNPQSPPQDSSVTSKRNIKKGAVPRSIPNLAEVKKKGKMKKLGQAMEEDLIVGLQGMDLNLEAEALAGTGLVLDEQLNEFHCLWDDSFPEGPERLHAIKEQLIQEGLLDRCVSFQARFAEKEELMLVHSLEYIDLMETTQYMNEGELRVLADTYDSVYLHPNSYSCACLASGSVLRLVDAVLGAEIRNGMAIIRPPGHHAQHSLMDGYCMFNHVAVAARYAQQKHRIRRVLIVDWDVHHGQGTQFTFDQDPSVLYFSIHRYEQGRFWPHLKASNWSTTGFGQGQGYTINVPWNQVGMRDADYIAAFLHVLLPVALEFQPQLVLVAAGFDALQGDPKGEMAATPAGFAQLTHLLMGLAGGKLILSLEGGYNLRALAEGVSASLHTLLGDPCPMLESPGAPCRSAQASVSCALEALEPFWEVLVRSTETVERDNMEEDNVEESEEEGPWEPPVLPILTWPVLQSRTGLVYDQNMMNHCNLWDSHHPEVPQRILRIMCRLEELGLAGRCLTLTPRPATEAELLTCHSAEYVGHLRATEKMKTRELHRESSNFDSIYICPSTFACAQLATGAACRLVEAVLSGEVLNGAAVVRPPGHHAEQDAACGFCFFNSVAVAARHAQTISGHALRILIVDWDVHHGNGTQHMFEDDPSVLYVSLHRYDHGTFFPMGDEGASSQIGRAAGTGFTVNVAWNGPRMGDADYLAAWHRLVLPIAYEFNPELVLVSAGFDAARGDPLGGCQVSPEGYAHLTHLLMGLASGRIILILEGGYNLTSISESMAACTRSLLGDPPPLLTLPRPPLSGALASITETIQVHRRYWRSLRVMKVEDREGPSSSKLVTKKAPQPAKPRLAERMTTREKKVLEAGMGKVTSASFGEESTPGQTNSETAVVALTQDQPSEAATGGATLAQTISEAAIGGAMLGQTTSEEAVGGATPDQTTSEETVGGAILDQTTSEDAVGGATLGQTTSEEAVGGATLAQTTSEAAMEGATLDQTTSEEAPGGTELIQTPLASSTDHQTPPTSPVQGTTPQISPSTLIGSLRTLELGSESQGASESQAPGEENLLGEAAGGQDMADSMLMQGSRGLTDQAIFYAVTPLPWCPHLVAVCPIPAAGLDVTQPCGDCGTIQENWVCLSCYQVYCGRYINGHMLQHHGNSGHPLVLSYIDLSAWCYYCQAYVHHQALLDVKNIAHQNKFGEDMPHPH
recombinant human HDAC1, sequence (Q13547 whole entry): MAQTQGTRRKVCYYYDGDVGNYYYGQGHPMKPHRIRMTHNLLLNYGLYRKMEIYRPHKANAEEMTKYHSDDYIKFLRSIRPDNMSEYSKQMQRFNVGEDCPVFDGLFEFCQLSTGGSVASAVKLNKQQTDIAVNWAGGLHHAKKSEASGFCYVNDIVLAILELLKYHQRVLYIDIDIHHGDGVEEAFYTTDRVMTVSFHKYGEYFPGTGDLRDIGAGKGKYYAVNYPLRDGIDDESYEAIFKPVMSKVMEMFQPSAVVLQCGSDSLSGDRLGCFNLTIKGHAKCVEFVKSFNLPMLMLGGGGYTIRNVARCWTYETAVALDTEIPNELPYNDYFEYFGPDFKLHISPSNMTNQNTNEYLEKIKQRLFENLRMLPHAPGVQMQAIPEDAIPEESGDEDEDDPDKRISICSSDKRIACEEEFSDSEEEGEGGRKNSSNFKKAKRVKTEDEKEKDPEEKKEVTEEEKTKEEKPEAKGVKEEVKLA

| SMILES | pIC50 (recombinant human HDAC6) | residual percentage in HUMAN S9 FRACTION [1] [%] | residual percentage in RAT S9 FRACTION [2] [%] | pIC50 (recombinant human HDAC1) | residual percentage in RAT PLASMA (Stability in rat plasma) [%] | residual percentage in HUMAN PLASMA [3] [%] |
| --- | --- | --- | --- | --- | --- | --- |
| CS(=O)(=O)NCCC(c1ccc(-c2nnc(C(F)F)o2)cc1)c1cn(-c2ccc(N)nc2)nn1 (stereo not drawn) [Compd. 62, N-{3-[1-(6-aminopyridin-3-yl)-1H-1,2,3-triazol-4-yl]-3-{4-[5-(difluoromethyl)-1,3,4-oxadiazol-2-yl]phenyl}propyl}methanesulfonamide] | 7.57 | 95 | 86 | < 3.70 | 69 | 88 |
| Nc1cncc(-c2nnn(Cc3ccc(-c4nnc(C(F)F)o4)cc3)n2)c1 [compound 90, 5-(2-(4-(5-(difluoromethyl)-1,3,4-oxadiazol-2-yl)benzyl)-2H-tetrazol-5-yl)pyridin-3-amine] | 7.47 | 83 | 13 | < 3.70 | 88 | 80 |
| Fc1cc(-c2nnc(C(F)F)o2)cc(F)c1Cn1cc(-c2cccs2)nn1 [compound 122, 2-(3,5-difluoro-4-((4-(thiophen-2-yl)-1H-1,2,3-triazol-1-yl)methyl)phenyl)-5-(difluoromethyl)-1,3,4-oxadiazole] | 7.34 | 78 | 10 | < 3.70 | 84 | 88 |
| FC(F)c1nnc(-c2ccc(Cn3nnc(-c4csc5ccccc45)n3)cc2)o1 [compound 207, 2-(4-((5-(benzo[b]thiophen-3-yl)-2H-tetrazol-2-yl)methyl)phenyl)-5-(difluoromethyl)-1,3,4-oxadiazole] | 6.89 | 72 | 0 | 3.00 | 70 | 91 |
| O=C1NCc2ccc(-c3nnn(Cc4ccc(-c5nnc(C(F)F)o5)c(F)c4)n3)cc21 [compound 97, 6-(2-(4-(5-(difluoromethyl)-1,3,4-oxadiazol-2-yl)-3-fluorobenzyl)-2H-tetrazol-5-yl)isoindolin-1-one] | 7.42 | 84 | 95 | < 3.70 | 96 | 76 |
| COc1ccc(-c2nnn(Cc3ccc(-c4nnc(C(F)F)o4)cc3)n2)cc1OC [compound 128, 2-(difluoromethyl)-5-(4-((5-(3,4-dimethoxyphenyl)-2H-tetrazol-2-yl)methyl)phenyl)-1,3,4-oxadiazole] | 7.31 | 30 | 13 | < 3.70 | 83 | 96 |
| NC(=O)c1cc(-c2nnn(Cc3ccc(-c4nnc(C(F)F)o4)cc3)n2)cnc1N [compound 76, 2-amino-5-(2-(4-(5-(difluoromethyl)-1,3,4-oxadiazol-2-yl)benzyl)-2H-tetrazol-5-yl)nicotinamide] | 7.49 | 53 | 89 | < 3.70 | 73 | 74 |
| FC(F)c1nnc(-c2ccc(Cn3nnc(-c4cccc(-c5nc6c([nH]5)CCNC6)c4)n3)cc2)o1 [compound 108, 2-(difluoromethyl)-5-(4-((5-(3-(4,5,6,7-tetrahydro-1H-imidazo[4,5-c]pyridin-2-yl)phenyl)-2H-tetrazol-2-yl)methyl)phenyl)-1,3,4-oxadiazole] | 7.35 | 96 | 68 | 4.18 | 77 | 78 |
| CN(C)C(=O)c1cccc(-c2nnn(Cc3ccc(-c4nnc(C(F)F)o4)cc3)n2)c1 [compound 81, 3-(2-(4-(5-(difluoromethyl)-1,3,4-oxadiazol-2-yl)benzyl)-2H-tetrazol-5-yl)-N,N-dimethylbenzamide] | 7.48 | 78 | 14 | < 3.70 | 87 | 87 |

The next lines start with the values.

| pIC50 (recombinant human HDAC6) | residual percentage in HUMAN S9 FRACTION [1] [%] | residual percentage in RAT S9 FRACTION [2] [%] | pIC50 (recombinant human HDAC1) | residual percentage in RAT PLASMA (Stability in rat plasma) [%] | residual percentage in HUMAN PLASMA [3] [%] | SMILES |
| --- | --- | --- | --- | --- | --- | --- |
| 8.00 | 80 | 96 | < 3.70 | 68 | 87 | Nc1nc2ccc(-c3cn(Cc4ccc(-c5nnc(C(F)F)o5)cn4)nn3)cc2[nH]1 [Compd. 30, 6-(1-((5-(5-(difluoromethyl)-1,3,4-oxadiazol-2-yl)pyridin-2-yl)methyl)-1H-1,2,3-triazol-4-yl)-1H-benzo[d]imidazol-2-amine] |
| 6.69 | 92 | 63 | < 3.70 | 84 | 90 | CCCCC(c1ccc(-c2nnc(C(F)F)o2)cc1)n1cc(-c2ccc(N)nc2)nn1 (stereo not drawn) [compound 235, 5-(1-(1-(4-(5-(difluoromethyl)-1,3,4-oxadiazol-2-yl)phenyl)pentyl)-1H-1,2,3-triazol-4-yl)pyridin-2-amine] |
| 7.06 | 91 | 72 | < 3.70 | 80 | 88 | FC(F)c1nnc(-c2ccc(Cn3cc(-c4ccc5[nH]c(N6CCOCC6)nc5c4)nn3)cc2)o1 [Compd. 174, 4-(5-(1-(4-(5-(difluoromethyl)-1,3,4-oxadiazol-2-yl)benzyl)-1H-1,2,3-triazol-4-yl)-1H-benzo[d]imidazol-2-yl)morpholine] |
| 7.89 | 98 | 97 | < 3.70 | 64 | 74 | O=C1Nc2ccc(-c3cn(Cc4ccc(-c5nnc(C(F)F)o5)cn4)nn3)cc2C12CCNC2 (stereo not drawn) [compound 28, 5-(1-((5-(5-(difluoromethyl)-1,3,4-oxadiazol-2-yl)pyridin-2-yl)methyl)-1H-1,2,3-triazol-4-yl)spiro[indoline-3,3′-pyrrolidin]-2-one] |
| 6.53 | 88 | 89 | < 3.70 | 82 | 91 | CCC[C@@H](c1ccc(-c2nnc(C(F)F)o2)cc1)n1cc(-c2ccc(N)nc2)nn1 [compound 250, (S)-5-(1-(1-(4-(5-(difluoromethyl)-1,3,4-oxadiazol-2-yl)phenyl)butyl)-1H-1,2,3-triazol-4-yl)pyridin-2-amine] |
| 6.98 | 87 | 80 | < 3.70 | 92 | 81 | CCC[C@@H](c1ccc(-c2nnc(C(F)F)o2)cc1)n1cc(-c2ccc(N)nc2)nn1 (stereo in doubt) [compound 193, 5-(1-(1-(4-(5-(difluoromethyl)-1,3,4-oxadiazol-2-yl)phenyl)butyl)-1H-1,2,3-triazol-4-yl)pyridin-2-amine] |
| 7.66 | 92 | 99 | < 3.70 | 74 | 83 | O=C1Nc2ccc(-c3cn(Cc4ccc(-c5nnc(C(F)F)o5)cn4)nn3)cc2[C@@]12CCNC2 (single isomer, unassigned) [compound 273, 5-(1-((5-(5-(difluoromethyl)-1,3,4-oxadiazol-2-yl)pyridin-2-yl)methyl)-1H-1,2,3-triazol-4-yl)spiro[indoline-3,3′-pyrrolidin]-2-one] |
| 7.29 | 98 | 78 | < 3.70 | 69 | 88 | CC(=O)Nc1cc(-c2nnn(Cc3ccc(-c4nnc(C(F)F)o4)cc3)n2)cnc1C [compound 133, N-(5-(2-(4-(5-(difluoromethyl)-1,3,4-oxadiazol-2-yl)benzyl)-2H-tetrazol-5-yl)-2-methylpyridin-3-yl)acetamide] |
| 7.64 | 88 | 91 | < 3.70 | 78 | 77 | COc1ncccc1-c1cn(Cc2ccc(-c3nnc(C(F)F)o3)cn2)nn1 [compound 53, 2-(difluoromethyl)-5-(6-((4-(2-methoxypyridin-3-yl)-1H-1,2,3-triazol-1-yl)methyl)pyridin-3-yl)-1,3,4-oxadiazole] |
| 7.29 | 83 | 58 | < 3.70 | 82 | 92 | COc1ncccc1-c1cn(Cc2ccc(-c3nnc(C(F)F)o3)cc2)nn1 [compound 131, 2-(difluoromethyl)-5-(4-((4-(2-methoxypyridin-3-yl)-1H-1,2,3-triazol-1-yl)methyl)phenyl)-1,3,4-oxadiazole] |
